Assay results from PMC8459971, “Evaluation of the hepatotoxicity of the novel GPR40 (FFAR1) agonist CPL207280 in the rat and monkey” (PLoS ONE, 2021).
Read-outs that look alike come from different tables or passages of the source.

Tested on: HepaRG spheroids
Test: HepaRG 3D spheroids, cell and mitochondrial health markers, 14 days
Conditions: for High Cell Loss (Cellular ATP) / High Cell Loss (DNA structure) / High Cell Loss (Glutathione content) / High Cell Loss (Mitochondrial mass) / High Cell Loss (Mitochondrial membrane potential) / High Cell Loss (Oxidative stress) / High Cell Loss (Spheroid count) / High Cell Loss (Spheroid size): timepoint 336; for AC50: Homo sapiens, HepaRG
[1] = HepaRG spheroid, TIMEPOINT 336, at the concentration (uM) given
[2] = HepaRG spheroid, TIMEPOINT 336, plotted value at the concentration given

Description: Hepatic spheroids were formed by seeding HepaRG™ cells into round-bottom ultra-low adhesion 96-well spheroid plates (Corning®) in 3D liver media with 0.5% DMSO, 100 U/mL penicillin, and 100 mg/L streptomycin. Cells were incubated at 37°C and 5% CO2 until spheroid formation and then compound-treated. The test compound was diluted in the vehicle, and serial dilutions were made in a 0.5% vehicle in HepaRG™ induction media. […] L-buthionine sulfoximine was used as positive control for GSH content, whereas rotenone was simultaneously used as a positive control for mitochondrial dysfunction and ATP content. At the end of the incubation period, the cells were loaded with the relevant dye for each cell health marker: DNA structure–Hoescht, GSH content–mBCL, ROS formation–DHE, mitochondrial dysfunction–MitoTracker, and cellular ATP content–CellTiter-Glo®, Promega. The plate was then scanned using an automated confocal fluorescent cellular imager, ArrayScan® XTI (Thermo Scientific Cellomics) at 37°C and 5% CO2. Further, the cellular ATP content was measured using CellTiter-Glo® (Promega, USA).

CCCCS(=N)(=O)CC[C@H](N)C(=O)O (stereo partly drawn) [L-buthionine-sulfoximine]
High Cell Loss (Cellular ATP) (CONC 0.4 uM, HepaRG spheroid): N | High Cell Loss (DNA structure) (CONC 0.4 uM, HepaRG spheroid): N | High Cell Loss (Glutathione content) (CONC 0.4 uM, HepaRG spheroid): N | High Cell Loss (Mitochondrial mass) (CONC 0.4 uM, HepaRG spheroid): N | High Cell Loss (Mitochondrial membrane potential) (CONC 0.4 uM, HepaRG spheroid): N | High Cell Loss (Oxidative stress) (CONC 0.4 uM, HepaRG spheroid): N | High Cell Loss (Spheroid count) (CONC 0.4 uM, HepaRG spheroid): N | High Cell Loss (Spheroid size) (CONC 0.4 uM, HepaRG spheroid): N | Cellular ATP Mean Plotted Value (CONC 0.4 uM, TIMEPOINT 336): 1.06 | DNA structure Mean Plotted Value (CONC 0.4 uM, TIMEPOINT 336): 1 | Glutathione content Mean Plotted Value (CONC 0.4 uM, TIMEPOINT 336): 0.883 | Mitochondrial mass Mean Plotted Value (CONC 0.4 uM, TIMEPOINT 336): 1.03 | Mitochondrial membrane potential Mean Plotted Value (CONC 0.4 uM, TIMEPOINT 336): 0.945 | Oxidative stress Mean Plotted Value (CONC 0.4 uM, TIMEPOINT 336): 1.02 | Spheroid count Mean Plotted Value (CONC 0.4 uM, TIMEPOINT 336): 1 | Spheroid size Mean Plotted Value (CONC 0.4 uM, TIMEPOINT 336): 0.995 | High Cell Loss (Cellular ATP) (CONC 1 uM, HepaRG spheroid): N | High Cell Loss (DNA structure) (CONC 1 uM, HepaRG spheroid): N | High Cell Loss (Glutathione content) (CONC 1 uM, HepaRG spheroid): N | High Cell Loss (Mitochondrial mass) (CONC 1 uM, HepaRG spheroid): N | High Cell Loss (Mitochondrial membrane potential) (CONC 1 uM, HepaRG spheroid): N | High Cell Loss (Oxidative stress) (CONC 1 uM, HepaRG spheroid): N | High Cell Loss (Spheroid count) (CONC 1 uM, HepaRG spheroid): N | High Cell Loss (Spheroid size) (CONC 1 uM, HepaRG spheroid): N | Cellular ATP Mean Plotted Value (CONC 1 uM, TIMEPOINT 336): 1.05 | DNA structure Mean Plotted Value (CONC 1 uM, TIMEPOINT 336): 1.1 | Glutathione content Mean Plotted Value (CONC 1 uM, TIMEPOINT 336): 0.886 | Mitochondrial mass Mean Plotted Value (CONC 1 uM, TIMEPOINT 336): 1.14 | Mitochondrial membrane potential Mean Plotted Value (CONC 1 uM, TIMEPOINT 336): 1 | Oxidative stress Mean Plotted Value (CONC 1 uM, TIMEPOINT 336): 0.984 | Spheroid count Mean Plotted Value (CONC 1 uM, TIMEPOINT 336): 1 | Spheroid size Mean Plotted Value (CONC 1 uM, TIMEPOINT 336): 1.06 | High Cell Loss (Cellular ATP) (CONC 4 uM, HepaRG spheroid): N | High Cell Loss (DNA structure) (CONC 4 uM, HepaRG spheroid): N | High Cell Loss (Glutathione content) (CONC 4 uM, HepaRG spheroid): N | High Cell Loss (Mitochondrial mass) (CONC 4 uM, HepaRG spheroid): N | High Cell Loss (Mitochondrial membrane potential) (CONC 4 uM, HepaRG spheroid): N | High Cell Loss (Oxidative stress) (CONC 4 uM, HepaRG spheroid): N | High Cell Loss (Spheroid count) (CONC 4 uM, HepaRG spheroid): N | High Cell Loss (Spheroid size) (CONC 4 uM, HepaRG spheroid): N | Cellular ATP Mean Plotted Value (CONC 4 uM, TIMEPOINT 336): 0.856 | DNA structure Mean Plotted Value (CONC 4 uM, TIMEPOINT 336): 0.816 | Glutathione content Mean Plotted Value (CONC 4 uM, TIMEPOINT 336): 0.715 | Mitochondrial mass Mean Plotted Value (CONC 4 uM, TIMEPOINT 336): 1.03 | Mitochondrial membrane potential Mean Plotted Value (CONC 4 uM, TIMEPOINT 336): 0.861 | Oxidative stress Mean Plotted Value (CONC 4 uM, TIMEPOINT 336): 1 | Spheroid count Mean Plotted Value (CONC 4 uM, TIMEPOINT 336): 1 | Spheroid size Mean Plotted Value (CONC 4 uM, TIMEPOINT 336): 0.997 | High Cell Loss (Cellular ATP) (CONC 10 uM, HepaRG spheroid): N | High Cell Loss (DNA structure) (CONC 10 uM, HepaRG spheroid): N | High Cell Loss (Glutathione content) (CONC 10 uM, HepaRG spheroid): N | High Cell Loss (Mitochondrial mass) (CONC 10 uM, HepaRG spheroid): N | High Cell Loss (Mitochondrial membrane potential) (CONC 10 uM, HepaRG spheroid): N | High Cell Loss (Oxidative stress) (CONC 10 uM, HepaRG spheroid): N | High Cell Loss (Spheroid count) (CONC 10 uM, HepaRG spheroid): N | High Cell Loss (Spheroid size) (CONC 10 uM, HepaRG spheroid): N | Cellular ATP Mean Plotted Value (CONC 10 uM, TIMEPOINT 336): 0.697 | DNA structure Mean Plotted Value (CONC 10 uM, TIMEPOINT 336): 1.13 | Glutathione content Mean Plotted Value (CONC 10 uM, TIMEPOINT 336): 0.689 | Mitochondrial mass Mean Plotted Value (CONC 10 uM, TIMEPOINT 336): 0.979 | Mitochondrial membrane potential Mean Plotted Value (CONC 10 uM, TIMEPOINT 336): 0.943 | Oxidative stress Mean Plotted Value (CONC 10 uM, TIMEPOINT 336): 1.04 | Spheroid count Mean Plotted Value (CONC 10 uM, TIMEPOINT 336): 1 | Spheroid size Mean Plotted Value (CONC 10 uM, TIMEPOINT 336): 0.951 | High Cell Loss (Cellular ATP) (CONC 40 uM, HepaRG spheroid): N | High Cell Loss (DNA structure) (CONC 40 uM, HepaRG spheroid): N | High Cell Loss (Glutathione content) (CONC 40 uM, HepaRG spheroid): N | High Cell Loss (Mitochondrial mass) (CONC 40 uM, HepaRG spheroid): N | High Cell Loss (Mitochondrial membrane potential) (CONC 40 uM, HepaRG spheroid): N | High Cell Loss (Oxidative stress) (CONC 40 uM, HepaRG spheroid): N | High Cell Loss (Spheroid count) (CONC 40 uM, HepaRG spheroid): N | High Cell Loss (Spheroid size) (CONC 40 uM, HepaRG spheroid): N | Cellular ATP Mean Plotted Value (CONC 40 uM, TIMEPOINT 336): 0.216 | DNA structure Mean Plotted Value (CONC 40 uM, TIMEPOINT 336): 1.18 | Glutathione content Mean Plotted Value (CONC 40 uM, TIMEPOINT 336): 0.15 | Mitochondrial mass Mean Plotted Value (CONC 40 uM, TIMEPOINT 336): 1.05 | Mitochondrial membrane potential Mean Plotted Value (CONC 40 uM, TIMEPOINT 336): 0.972 | Oxidative stress Mean Plotted Value (CONC 40 uM, TIMEPOINT 336): 1.22 | Spheroid count Mean Plotted Value (CONC 40 uM, TIMEPOINT 336): 1 | Spheroid size Mean Plotted Value (CONC 40 uM, TIMEPOINT 336): 0.955 | High Cell Loss (Cellular ATP) (CONC 100 uM, HepaRG spheroid): N | High Cell Loss (DNA structure) (CONC 100 uM, HepaRG spheroid): N | High Cell Loss (Glutathione content) (CONC 100 uM, HepaRG spheroid): N | High Cell Loss (Mitochondrial mass) (CONC 100 uM, HepaRG spheroid): N | High Cell Loss (Mitochondrial membrane potential) (CONC 100 uM, HepaRG spheroid): N | High Cell Loss (Oxidative stress) (CONC 100 uM, HepaRG spheroid): N | High Cell Loss (Spheroid count) (CONC 100 uM, HepaRG spheroid): N | High Cell Loss (Spheroid size) (CONC 100 uM, HepaRG spheroid): N | Cellular ATP Mean Plotted Value (CONC 100 uM, TIMEPOINT 336): 0.019 | DNA structure Mean Plotted Value (CONC 100 uM, TIMEPOINT 336): 1.13 | Glutathione content Mean Plotted Value (CONC 100 uM, TIMEPOINT 336): 0.119 | Mitochondrial mass Mean Plotted Value (CONC 100 uM, TIMEPOINT 336): 1.03 | Mitochondrial membrane potential Mean Plotted Value (CONC 100 uM, TIMEPOINT 336): 0.807 | Oxidative stress Mean Plotted Value (CONC 100 uM, TIMEPOINT 336): 1.13 | Spheroid count Mean Plotted Value (CONC 100 uM, TIMEPOINT 336): 1 | Spheroid size Mean Plotted Value (CONC 100 uM, TIMEPOINT 336): 0.975 | High Cell Loss (Cellular ATP) (CONC 400 uM, HepaRG spheroid): N | High Cell Loss (DNA structure) (CONC 400 uM, HepaRG spheroid): N | High Cell Loss (Glutathione content) (CONC 400 uM, HepaRG spheroid): N | High Cell Loss (Mitochondrial mass) (CONC 400 uM, HepaRG spheroid): N | High Cell Loss (Mitochondrial membrane potential) (CONC 400 uM, HepaRG spheroid): N | High Cell Loss (Oxidative stress) (CONC 400 uM, HepaRG spheroid): N | High Cell Loss (Spheroid count) (CONC 400 uM, HepaRG spheroid): N | High Cell Loss (Spheroid size) (CONC 400 uM, HepaRG spheroid): N | Cellular ATP Mean Plotted Value (CONC 400 uM, TIMEPOINT 336): 0.00038 | DNA structure Mean Plotted Value (CONC 400 uM, TIMEPOINT 336): 0.279 | Glutathione content Mean Plotted Value (CONC 400 uM, TIMEPOINT 336): 0.0382 | Mitochondrial mass Mean Plotted Value (CONC 400 uM, TIMEPOINT 336): 0.963 | Mitochondrial membrane potential Mean Plotted Value (CONC 400 uM, TIMEPOINT 336): 0.452 | Oxidative stress Mean Plotted Value (CONC 400 uM, TIMEPOINT 336): 0.937 | Spheroid count Mean Plotted Value (CONC 400 uM, TIMEPOINT 336): 1 | Spheroid size Mean Plotted Value (CONC 400 uM, TIMEPOINT 336): 0.965 | High Cell Loss (Cellular ATP) (CONC 1000 uM, HepaRG spheroid): N | High Cell Loss (DNA structure) (CONC 1000 uM, HepaRG spheroid): N | High Cell Loss (Glutathione content) (CONC 1000 uM, HepaRG spheroid): N | High Cell Loss (Mitochondrial mass) (CONC 1000 uM, HepaRG spheroid): N | High Cell Loss (Mitochondrial membrane potential) (CONC 1000 uM, HepaRG spheroid): N | High Cell Loss (Oxidative stress) (CONC 1000 uM, HepaRG spheroid): N | High Cell Loss (Spheroid count) (CONC 1000 uM, HepaRG spheroid): N | High Cell Loss (Spheroid size) (CONC 1000 uM, HepaRG spheroid): N | Cellular ATP Mean Plotted Value (CONC 1000 uM, TIMEPOINT 336): 0.000301 | DNA structure Mean Plotted Value (CONC 1000 uM, TIMEPOINT 336): 0.123 | Glutathione content Mean Plotted Value (CONC 1000 uM, TIMEPOINT 336): 0.0358 | Mitochondrial mass Mean Plotted Value (CONC 1000 uM, TIMEPOINT 336): 0.999 | Mitochondrial membrane potential Mean Plotted Value (CONC 1000 uM, TIMEPOINT 336): 0.412 | Oxidative stress Mean Plotted Value (CONC 1000 uM, TIMEPOINT 336): 0.683 | Spheroid count Mean Plotted Value (CONC 1000 uM, TIMEPOINT 336): 1 | Spheroid size Mean Plotted Value (CONC 1000 uM, TIMEPOINT 336): 0.983 | Cellular ATP MEC (HepaRG spheroid, TIMEPOINT 336): 6.84 µM | DNA structure MEC (HepaRG spheroid, TIMEPOINT 336): 222 µM | Glutathione content MEC (HepaRG spheroid, TIMEPOINT 336): 2.95 µM | Mitochondrial membrane potential MEC (HepaRG spheroid, TIMEPOINT 336): 177 µM | Oxidative stress MEC (HepaRG spheroid, TIMEPOINT 336): 658 (NS) uM | Cellular ATP MR (% @ concentration) [1]: 100% | DNA structure MR (% @ concentration) [1]: 89% | Glutathione content MR (% @ concentration) [1]: 96% | Mitochondrial membrane potential MR (% @ concentration) [1]: 58% | Oxidative stress MR (% @ concentration) [1]: 35% | Cellular ATP MR [2]: 0.000301 | DNA structure MR [2]: 0.123 | Glutathione content MR [2]: 0.0358 | Mitochondrial membrane potential MR [2]: 0.412 | Oxidative stress MR [2]: 0.683 | AC50 (read-out: Cellular ATP AC50): 15.5 µM | AC50 (read-out: DNA structure AC50): 294 µM | AC50 (read-out: Glutathione content AC50): 16.2 µM | AC50 (read-out: Mitochondrial mass AC50): > 1000 µM | AC50 (read-out: Mitochondrial membrane potential AC50): 511 µM | AC50 (read-out: Oxidative stress AC50): > 1000 µM | AC50 (read-out: Spheroid count AC50): > 1000 µM | AC50 (read-out: Spheroid size AC50): > 1000 µM
